Test results reported in patent publication US6114517A, “Methods of modulating tumor necrosis factor α-induced expression of cell adhesion molecules” (Isis Pharmaceuticals Inc., priority 1998, dated 2000).

How the values were obtained:
Type in all cases: cell-based, human
c-raf mRNA = c-raf mRNA levels by Northern blot in HMVEC
Procedure: Human dermal microvascular cells (HMVEC-d; Clonetics, San Diego, Calif.) were cultivated in endothelial basal media (EBM, Clonetics) supplemented with 10% fetal bovine serum (HyClone, Logan, Utah). Cells were grown in 100 mm petri dishes until 70-80% confluent, then washed with PBS and OPTI-MEM (Life Technologies, Inc., Gaithersburg, Md.). The cells were then incubated in the presence of OPTI-MEM and […] LIPOFECTIN (a 1:1 (w/w) liposome formulation of the cationic lipid N-[1-(2,3-dioleyloxy)propyl]-n,n,n-trimethylammonium chloride (DOTMA), and dioleoyl phosphotidylethanolamine (DOPE) in membrane filtered water (Life Technologies, Gaithersburg, Md.), per 100 nM of oligonucleotide followed by addition of oligonucleotide at the appropriate concentrations.
For determination of mRNA levels by Northern blot, total RNA was prepared from cells by the guanidinium isothiocyanate procedure or by the Qiagen RNAEASY method (Qiagen, Santa Clarita, Calif.) at the indicated times after initiation of oligonucleotide treatment. Northern blot analysis was performed as described in Current Protocols in Molecular Biology (Ausubel, F. M., et al., (eds), 1987, Greene Publishing Assoc. and Wiley Interscience, New York). A glyceraldehyde 3-phosphate dehydrogenase (G3PDH) probe was purchased from Clontech (Palo Alto, Calif., Catalog Number 9805-1). RNA was quantified and normalized to G3PDH mRNA levels using a Molecular Dynamic PHOSPHORIMAGER (Sunnyvale, Calif.).
(§1) ISIS 12854 (SEQ ID NO. 2) is a 2'-O-methoxyethyl mixed backbone chimeric antisense oligonucleotide designed to hybridize with 3'-untranslated sequences contained within human c-raf mRNA. To determine whether this antisense oligonucleotide is effective as a c-raf inhibitor in endothelial cells, human dermal microvascular cells (HMVEC) were treated with ISIS 12854 (SEQ ID NO. 2) as described in Example 2. C-raf mRNA and protein expression was examined by northern and Western blot analysis. The c-raf cDNA probe was generated from the plasmid, p627 (American Type Culture Collection, Manassas, Va.; catalog #41050), following the supplied instructions. The c-raf antibody was obtained from Transduction Laboratories, Inc. (Lexington, Ky.).

JNK = assay: TNF-α-stimulated JNK activity, in vitro kinase assay on extracts of treated cells; conditions: 48 hours recovery, TNF-α 5 or 15 minutes
Procedure: (§2) To examine the effect of the c-raf antisense oligonucleotide (ISIS 12854, SEQ ID NO. 2) on ERK, JNK, and p38 MAPK activities stimulated by TNF-α, in vitro kinase assays were performed on extracts derived from cells treated with ISIS 12854 (SEQ ID NO. 2). Cells were treated with oligonucleotides and induced with cytokines. At the indicated time, cells were lysed on ice and debris was removed by centrifugation. Protein concentration was measured by Bradford assay. Lysate containing equal amounts of protein were incubated with primary antibody-agarose conjugates (ERK and p38 assay; Santa Cruz Biotechnology, Santa Cruz, Calif.), or with JNK1-specific or JNK2-specific antibodies (JNK assay; Upstate Biotechnology, Lake Placid, N.Y.), overnight at 4° C.
(§3) For isoform-specific JNK assays, anti-rabbit IgG conjugated with agarose beads was added to cell extracts following JNK antibody treatment and wash steps and incubated for 2 hours at 4° C. […]
(§4) Cells were treated with the c-raf antisense compound, ISIS 12854 (SEQ ID NO. 2), allowed to recover for 48 hours, at which time TNF-α was added for 5 or 15 minutes prior to cell lysis and initiation of the kinase assays. […] Suitable substrates and ATP were added to the immunoprecipitated kinase complexes and the reaction mixes were analyzed on SDS-PAGE. […]

c-raf protein = c-raf protein levels by Western blot in HMVEC
Procedure: (§5) For determination of protein levels by Western blot, cellular extracts were prepared using […] of RIPA extraction buffer per 100-mm dish. The protein concentration was quantified by Bradford assay using the BioRad kit (BioRad, Hercules, Calif.). Equal amounts of protein were loaded on 10% or 12% SDS-PAGE mini-gel (Novex, San Diego, Calif.). Once transferred to PVDF membranes (Millipore, Bedford, Mass.), the membranes were then treated for a minimum of 2 hours with specific primary antibody followed by incubation with secondary antibody conjugated to HRP. The results were visualized by Enhanced Chemiluminescent (ECL) detection (New England BioLab, Beverly, Mass.). In some experiments, the blots were stripped in stripping buffer (2% SDS, 12.5 mM Tris, pH 6.8) for 30 minutes at 50° C. After extensive washing, the blots were blocked and blotted with different primary antibody.
as §1

A-raf protein = A-raf protein expression by Western blot in HMVEC; conditions: same blot stripped and blotted with antibody against A-raf
Procedure: as §5
Reduction of c-raf protein levels also occurred following oligonucleotide treatment. Reduction in protein expression was first detectable 24 hours after treatment and maximal reduction of c-raf protein levels was achieved 48 hours after treatment with 150 nM oligonucleotide. Reduction of c-raf protein levels persisted up to 72 hour following initial treatment.

ERK = assay: TNF-α-stimulated ERK activity, in vitro kinase assay on extracts of treated cells; conditions: 48 hours recovery, TNF-α 5 or 15 minutes
Procedure: as §2, §3, §4

IC50 (c-raf mRNA; read-out: IC50 for c-raf mRNA reduction): ~2.5 nM
Substance: ToCoCoCoGoCsCsTsGsTsGsAsCsAsToGoCoAoToT [ISIS 12854]
% mRNA Expression (c-raf) (c-raf mRNA; 0.5 nM): 67%
% mRNA Inhibition (c-raf) (c-raf mRNA; 0.5 nM): 33%
% mRNA Expression (c-raf) (c-raf mRNA; 2.5 nM): 31%
% mRNA Inhibition (c-raf) (c-raf mRNA; 2.5 nM): 69%
% mRNA Expression (c-raf) (c-raf mRNA; 10 nM): 15%
% mRNA Inhibition (c-raf) (c-raf mRNA; 10 nM): 85%
% mRNA Expression (c-raf) (c-raf mRNA; 50 nM): 10%
% mRNA Inhibition (c-raf) (c-raf mRNA; 50 nM): 90%
% mRNA Expression (c-raf) (c-raf mRNA; 100 nM): 13%
% mRNA Inhibition (c-raf) (c-raf mRNA; 100 nM): 87%
% mRNA Expression (c-raf) (c-raf mRNA; 200 nM): 3%
% mRNA Inhibition (c-raf) (c-raf mRNA; 200 nM): 97%
JNK activity (JNK): inhibited
time of maximal reduction of c-raf protein levels (c-raf protein; after treatment with 150 nM oligonucleotide): 48 h
time at which reduction in c-raf protein expression was first detectable (c-raf protein; after treatment, Western blot): 24 h
persistence of reduction of c-raf protein levels (c-raf protein; following initial treatment): up to 72 hour
A-raf protein expression (A-raf protein): largely unaffected
ERK activity (ERK): reduced
